Measurements published in ChEMBL document CHEMBL1151678, “Halicylindramides D and E, antifungal peptides from the marine sponge Halichondria cylindrata” (J Nat Prod, 1996).
Active and inactive are the calls of the source. The calls are words filed in the database; no cut-off is given here.

Assays:
[1] = test system: Umbelopsis ramanniana; assay: Antifungal activity against Mortierella ramanniana at 160 ug/disk; type: functional, organism-based
[2] = test system: P388; assay: Cytotoxicity against mouse P388 cells at 5 ug/mL; type: functional, cell-based
[3] = test system: P388; assay: Cytotoxicity against mouse P388 cells; type: functional, cell-based
[4] = test system: Umbelopsis ramanniana; assay: Antifungal activity against Mortierella ramanniana at 5 ug/disk; type: functional, organism-based

CC(C)[C@@H](NC(=O)[C@@H]1CCCN1C(=O)[C@H](Cc1ccc(Br)cc1)NC(=O)[C@@H](C)NC=O)C(=O)N[C@H](C(=O)N[C@H](Cc1c[nH]c2ccccc12)C(=O)N[C@@H](CCCNC(=N)N)C(=O)N[C@H](CS(=O)(=O)O)C(=O)N[C@H](C(=O)N(C)[C@@H](CCC(N)=O)C(=O)N[C@H](Cc1ccccc1)C(N)=O)[C@@H](C)O)C(C)(C)C
Activity [1]: Active
Activity [2]: inactive

CC(C)[C@H](NC(=O)[C@H](NC(=O)[C@@H]1CCCN1C(=O)[C@H](Cc1ccc(Br)cc1)NC(=O)[C@@H](C)NC=O)C(C)C)C(=O)N[C@H](Cc1c[nH]c2ccccc12)C(=O)N[C@@H](CCCNC(=N)N)C(=O)N[C@H](CS(=O)(=O)[O-])C(=O)N[C@@H]1C(=O)N(C)[C@@H](CCC(N)=O)C(=O)N[C@H](Cc2ccccc2)C(=O)NCC(=O)N[C@H](CC(N)=O)C(=O)O[C@@H]1C.[Na+] [HALICYLINDRAMIDE D]
IC50 [3]: 2.1 µg/mL
Activity [4]: Active
